Results from paper PMC10726355, “Small Molecule Ligands of the BET-like Bromodomain, SmBRD3, Affect Schistosoma mansoni Survival, Oviposition, and Development” (Journal of Medicinal Chemistry, 2023).
In brackets after ≈: the same amount, converted by molar mass. Entries after “also recorded” stand apart in the source; their conditions may differ. Like-named read-outs stand apart in the source and are kept apart here.

Legend:
[1] = molecular target: SmBRD3(2) (Schistosoma mansoni, UniProt A0A5K4ESD7); experiment: biochemical; format: binding
[2] = molecular target: SmBRD3(1,2) (Schistosoma mansoni, UniProt A0A5K4ESD7); experiment: biochemical; format: binding; conditions: for Kd: ITC
[3] = system: SmBRD3(1,2); experiment: Differential scanning fluorimetry (thermal shift), SmBRD3(1,2); conditions: DSF; 50 μM compound
Protocol: Reported ΔTm values are the mean of two replicates.
The differential scanning fluorimetry (DSF) or thermal stability assays were carried out following the protocol described by Niesen et al. and data were analysed as described previously.8 Thermal melting experiments were carried out using the Mx3005p real-time PCR machine (Agilent) and employing a protein concentration of 5 μM for the schistosomal bromodomains [SmBRD3(2),
the DMSO content was 0.5% (v/v). Buffer conditions were 50 mM HEPES buffer, pH 7.5, 500 mM NaCl and a 1:500 dilution of SYPRO® Orange (Invitrogen, CA) was used. The 96-well PCR plates were sealed and centrifuged for 2 min at 1000 rpm at 25 °C before measurement. The temperature was raised with a step of 1 °C per 30 s from 25 °C to 85 °C, and fluorescence readings were taken
difference between the transition midpoints of sample and reference wells containing protein without inhibitor in the same plate. Reported ΔTm values are the mean of two replicates.
Isothermal titration calorimetry experiments were performed on a MicroCal PEAQ-ITC Automated or Manual (Malvern) and analysed with the MicroCal PEAQ-ITC Analysis software (Malvern 1.1.0.1262) using a single binding site model. For each experiment, the first data point was removed from the analysis. The proteins were dialysed at 4 °C overnight in a Slide-A-LyzerR MINI Dialysis Device (2000 MWCO; Thermo Scientific Life Technologies) into 50 mM HEPES, 150 mM NaCl containing 0.2% DMSO; pH 7.4. Proteins were centrifuged to remove aggregates (3 min, 3000 rpm, 25 °C).
Compounds were dissolved as a DMSO stock solution and diluted to the required concentration using dialysis buffer (DMSO free) and to a final DMSO concentration of 0.2% (unless otherwise specified). The cell was stirred at 750 rpm, reference power set to 5 μcal/s and temperature held at 25 °C. After an initial delay of 60 s, 19 x 2 μL injections (first injection 0.4 μL) were performed with a spacing of 180 s. […]

[4] = system: S. mansoni miracidia; experiment: Ex vivo miracidia to sporocyst transformation screening; design: species or system Schistosoma mansoni; conditions: 48 h; for Effect on miracidia to sporocyst transformation: 0.5-25 μM in 1% DMSO, 26 °C
Protocol: S. mansoni miracidia were obtained by hatching of schistosome eggs as previously described.[73] The resulting miracidial suspension was collected, washed with Chernin’s balanced salt solution (CBSS),[73] and enumerated prior to being used for ex vivo miracidia to sporocyst screens as previously reported.[66],[73] Each compound was tested at 0.5, 2.0, 5.0, 10, and 25 μM final concentrations (in 1% DMSO). Each treatment was set up in duplicate (15–25 miracidia/well). Each titration was performed in three independent experiments (two technical replicates per data point). Parasites cultured in CBSS (containing 1% DMSO) were included as negative controls. After 48 h incubation at 26 °C in the dark, dead, fully transformed and partially transformed miracidia were enumerated as previously described.[74],[75]

[5] = system: adult male S. mansoni; experiment: Determination of compound parasite permeability (LCMS of worm lysate); format: in vitro ADME, Schistosoma mansoni; conditions: for Quantity of compound found in lysed adult worms: worms treated with 20 μM of the same compound for 24 h
[6] = chromLogD assay; format: physicochemical; conditions: reversed phase HPLC column (Gemini NX C18), pH 7.4
Protocol: Lipophilicity: a chromLogD assay was carried out by the Physchem Team, Discovery Analytical, NCE Molecular Discovery at GSK. The chromatographic hydrophobicity index (CHI)[46],[47] values were measured using reversed phase HPLC column (50 × 2 mm […] Gemini NX C18, Phenomenex, UK) with fast acetonitrile gradient at starting mobile phase of pHs 2, 7.4, or 10.5. CHI values were derived directly from the gradient retention times using calibration parameters for standard compounds. The CHI value approximates to the volume % organic concentration when the compound elutes. CHI was linearly transformed into a chromLogD[48] value by least-squares fitting of experimental CHI values to calculated cLogP values for over 20000 research compounds.

[7] = system: S. mansoni schistosomula; experiment: Ex vivo schistosomula screening (Roboworm high content imaging); design: species or system Schistosoma mansoni; conditions: 72 h; for EC50: Schistosoma mansoni, ethyl esters (R=Et), 95% CI in brackets
Protocol: A high-throughput imaging platform that quantifies both phenotype and motility ex vivo, was used to screen compounds against schistosomula; their effects were assessed as previously described.[20] Briefly, the schistosomula stage of S. mansoni was obtained by mechanical transformation of cercariae, dispensed into 384-well tissue culture plates, and dosed with 20 μM (Figure 7) or 10 μM (Figure S48) of each compound. Following 72 h coincubation of the schistosomula and compound, the plate was subjected to high content imaging to quantify the effects of each compound.
S. mansoni schistosomula were obtained by mechanical transformation from cercariae as previously described,[64] distributed in 384-well tissue culture plates (PerkinElmer, catalogue number 6007460) at 120 parasites/well and dosed with the selected compounds as previously reported.[65]−[68] For this study, each compound (as 10 mM DMSO stock solution) was initially tested at two concentration points (20 and 10 μM final concentration, in duplicates) in at least four independent screens (Z′ scores above 0.35).[69] Each screen contained both positive (10 μM auranofin (AUR) in 0.625% DMSO) and negative (0.625% DMSO) controls. […] Following 72 h schistosomula/compound coincubation, the plate was analyzed by the Roboworm platform.[70] EC50 values were calculated from the titrated concentrations by nonlinear regression, after log transformation of concentrations and data normalization using GraphPad Prism 7.02.

[8] = Compound conversion in media with or without worms (LCMS); format: in vitro ADME; conditions: media in the presence or absence of worms; 20 μM; 24 h
Protocol: As the low solubility of the ethyl ester derivatives prevented us from determining their affinity for SmBRD3(2) using ITC, it is possible that these compounds are themselves inhibitors of SmBRD3(2). Alternatively, the ethyl esters could function as pro-drugs that release the corresponding acid in the parasite. To investigate compound permeability, adult worms were treated with 20 μM of the acid 15 or the ethyl ester 22 for 24 h, and then the media exchanged three times. The worms were then lysed and the levels of the acid 15 or the ethyl ester 22 were determined using LCMS (Figure S50).
Figure S-52. A. Estimation of the concentration of 15 and 22 in media after incubation with 22 in the presence and absence of S. mansoni. The concentration estimations were calculated as an average (presence of worm n=3, no worm n=2) from the analysis media in the presence (5 worms per well) or absence of worms, with error bars representing the s.e.m. B. Estimation of the concentration of 1 and 2 in media after incubation with 2 in the presence and absence of S. mansoni. The concentration estimations were calculated as an average (presence of worm n=2, no worm n=1) from the analysis of media in the presence (5 worms per well) or absence of worms with error bars representing the […]

[9] = CAD solubility assay; format: physicochemical; conditions: phosphate buffered saline, pH 7.4, phosphate buffered saline at pH 7.4; read-out: Aqueous Solubility by CAD
Protocol: A CAD solubility assay was carried out by Physchem Team, Discovery Analytical, NCE Molecular Discovery at GSK. 5 μL of 10 mM DMSO stock solution was diluted to 100 μL with pH 7.4 phosphate buffered saline, equilibrated for 1 h at room temperature, and filtered through Millipore MultiscreenHTS-PCF filter plates (MSSL BPC). The filtrate was quantified using a suitably calibrated charged aerosol detector.[45]

[10] = system: S. mansoni adult worms; experiment: Ex vivo adult worm screening (motility, IVLEs, pairing); design: species or system Schistosoma mansoni; conditions: 72 h
Protocol: S. mansoni adult worms were recovered by hepatic portal vein perfusion from TO mice (Mus musculus HsdOLa:TO - Tuck Ordinary; Envigo, UK) that were percutaneously infected 7 weeks earlier with 180 cercariae.[65],[71] Following perfusion, schistosomes were washed and processed as previously described.[65],[66] Subsequently, schistosome pairs were seeded into 48 well tissue culture plates (1 worm pair/well, in duplicate) and dosed with the compounds (20 μM in 0.2% DMSO). DMSO (0.2%) and praziquantel (10 μM in 0.1% DMSO) were also included as negative and positive controls, respectively. Parasite motility was assessed by a digital image processing-based system (WormassayGP2),[66] modified after Wormassay.[72]In vitro laid eggs (IVLEs) were enumerated and the presence or absence of paired worms was noted.

[11] = molecular target: T1, HsBRD4(1) (Homo sapiens, UniProt O60885); experiment: Isothermal titration calorimetry (ITC), HsBRD4(1); format: binding; conditions: single value ± error of the curve fit
T1 construct: HsBRD4(1) Kd (ITC, nM); made in house; host or cells: E. coli BL21(DE3)

[12] = 20 μM (Figure 7) or 10 μM (Figure S48)

Sequence of SmBRD3(2) (A0A5K4ESD7 entry or part of it): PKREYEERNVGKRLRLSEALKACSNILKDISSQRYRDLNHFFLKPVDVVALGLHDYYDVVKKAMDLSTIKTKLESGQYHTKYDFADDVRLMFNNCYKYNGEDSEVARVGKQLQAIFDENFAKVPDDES
Sequence of SmBRD3(1,2) (Schistosoma mansoni, UniProt A0A5K4ESD7) (A0A5K4ESD7 entry or part of it): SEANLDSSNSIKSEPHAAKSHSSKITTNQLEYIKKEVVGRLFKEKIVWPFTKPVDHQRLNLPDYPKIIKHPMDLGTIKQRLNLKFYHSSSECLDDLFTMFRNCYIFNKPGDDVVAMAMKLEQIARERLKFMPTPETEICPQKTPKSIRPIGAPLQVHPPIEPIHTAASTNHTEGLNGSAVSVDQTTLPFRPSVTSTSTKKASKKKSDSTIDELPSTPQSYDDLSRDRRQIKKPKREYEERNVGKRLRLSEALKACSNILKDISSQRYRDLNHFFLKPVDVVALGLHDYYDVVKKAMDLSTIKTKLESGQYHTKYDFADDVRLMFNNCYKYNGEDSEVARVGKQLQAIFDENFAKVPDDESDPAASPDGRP

## Cc1noc(C)c1-c1cc(O)cc(C(O)c2ccccc2)c1 (stereo not shown) [OXFBD02 (1), OXFBD02, reference compound]
[1]; ITC, single run ± error of curve fit, Repeat 1
  SmBRD3(2) Kd, Repeat 1: No binding
[1]; ITC, single value ± error of the curve fit or mean of 2-3 repeats ± s.e.m.
  SmBRD3(2) Kd: no binding detected; also recorded: No detectable binding
[2]; ITC stoichiometry, n=1 ± error of curve fit
  N number, binding to SmBRD3(1,2): 1.61 ± 3.3e-2
[2]; SmBRD3(1,2) Kd, n = 1 ± error of the curve fit
  Kd: 683 ± 166 nM
[2]; SmBRD3(1,2) pKd
  Kd: 631 nM
[3]
  Thermal stabilisation (ΔTm) of SmBRD3(1,2): stabilize SmBRD3(1,2)
[4]
  Effect on miracidia to sporocyst transformation: modest effects

## CCOC(=O)c1ccc(-c2ccc3c(c2)[C@H](Nc2ccc4ncccc4c2)C[C@H](C)N3C(C)=O)cc1 [Compound 22, Ethyl 4-{(2S,4R)-1-Acetyl-2-methyl-4-[(quinolin-6-yl)amino]-1,2,3,4-tetrahydroquinolin-6-yl}benzoate]
[1]
  SmBRD3(2) Kd: No binding
  SmBRD3(2) Kd, Repeat 1: No binding
[5]; adult worms, 20 μM, 24 h
  Worm permeability: high worm permeability
[5]; worms treated with 20 μM for 24 h, LCMS
  Conversion of ester to acid 15 in the worm: can be converted from the ester to the acid in the worm
[5]; LCMS
  Quantity of compound found in lysed adult worms: High quantities
[6]
  chromatographic logD: 5.95
[7]; 10 μM
  Antischistosomula activity at 10 μM: active
[7]; [12]
  Effect on schistosomula motility: greatest effects; also recorded: strong effects
  Effect on schistosomula phenotype: greatest effects; also recorded: strong effects
[7]; read-out: Schistosomla Movement EC50
  EC50: 3300 nM
[7]; read-out: Schistosomla Phenotype EC50
  EC50: 1110 nM
[8]
  Conversion in media (ester hydrolysis / deacetylation): some ester hydrolysis
[9]
  solubility at 1 h: 13 µM (≈ 6.23 µg/mL)
[10]; 20 μM in 0.2% DMSO
  Effect on adult worm movement: substantial effects; also recorded: reduced
[10]; 20 μM
  Effect on egg count (in vitro laid eggs): reduced
  Effect on worm pairing: reduced
[4]
  Effect on miracidia to sporocyst transformation: concentration-dependent inhibition; also recorded: substantial and concentration-dependent effect
  Concentration at which the majority of miracidia were prevented from transforming into sporocysts: 2.00 µM

## CC(=O)N1c2ccc(-c3ccc(C(=O)O)cc3)cc2[C@H](Nc2ccc3ncccc3c2)C[C@@H]1C [Compound 15, 4-{(2S,4R)-1-Acetyl-2-methyl-4-[(quinolin-6-yl)amino]-1,2,3,4-tetrahydroquinolin-6-yl}benzoic Acid]
[1]; ITC stoichiometry, Repeat 1
  N number, binding to SmBRD3(2), Repeat 1: 1.48 ± 2.5e-2
[1]; ITC stoichiometry, Repeat 2
  N number, binding to SmBRD3(2), Repeat 2: 1.51 ± 2.0e-2
[1]; ITC stoichiometry, Repeat 3
  N number, binding to SmBRD3(2), Repeat 3: 1.69 ± 1.8e-2
[1]; ITC stoichiometry, mean of repeats
  N number, binding to SmBRD3(2), Mean: 1.56
[1]; ITC, read-out: SmBRD3(2) pKd (converted)
  Kd: 398 nM
[1]; ITC, single run ± error of curve fit, Repeat 2, read-out: SmBRD3(2) Kd, Repeat 2
  Kd: 361 ± 70.2 nM
[1]; ITC, single run ± error of curve fit, Repeat 3, read-out: SmBRD3(2) Kd, Repeat 3
  Kd: 411 ± 60.4 nM
[1]; read-out: SmBRD3(2) Kd
  Kd: 364 ± 26.3 nM
[1]; read-out: SmBRD3(2) Kd, Repeat 1
  Kd: 320 ± 82.8 nM
[5]; LCMS
  Quantity of compound found in lysed adult worms: lower quantities
[11]
  HsBRD4(1) Kd (ITC): high affinity
  Kd: 13.5 ± 2.47 nM
